Measured values reported in ChEMBL document CHEMBL1201862, “PubChem BioAssay data set” (2004).
Calls of active or inactive are those of the source.

What was measured:
Cytochrome P450 2D6 = Cytochrome P450 2D6 (Homo sapiens, UniProt P10635);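 note: CYP2D6 member of a cytochrome P450 panel assay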
Cytochrome P450 1A2 = target: T1, Cytochrome P450 1A2 (Homo sapiens, UniProt P05177);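 note: PubChem cytochrome P450 panel assay, CYP1A2 panel member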
T1 sequence (P05177 whole entry): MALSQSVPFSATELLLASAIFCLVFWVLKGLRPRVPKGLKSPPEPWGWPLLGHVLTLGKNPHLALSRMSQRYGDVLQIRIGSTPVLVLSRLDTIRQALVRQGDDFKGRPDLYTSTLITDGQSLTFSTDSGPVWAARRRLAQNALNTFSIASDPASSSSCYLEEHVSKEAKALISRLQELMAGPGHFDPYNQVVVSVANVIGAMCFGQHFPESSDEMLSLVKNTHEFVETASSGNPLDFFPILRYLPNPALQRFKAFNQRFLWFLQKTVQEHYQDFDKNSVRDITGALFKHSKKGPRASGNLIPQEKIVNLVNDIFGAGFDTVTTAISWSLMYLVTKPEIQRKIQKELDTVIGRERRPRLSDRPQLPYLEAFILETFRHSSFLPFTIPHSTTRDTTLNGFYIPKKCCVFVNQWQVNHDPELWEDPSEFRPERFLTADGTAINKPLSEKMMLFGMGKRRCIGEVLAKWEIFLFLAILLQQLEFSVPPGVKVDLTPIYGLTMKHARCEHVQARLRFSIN

[1] = Luminescence Cell-Based Dose Response HTS to Identify Inhibitors of 5'UTR Stem-Loop Driven Prion Protein mRNA Translation in H4 Neuroglioblastoma Cells. [Related pubchem assays: 1827 (Project Summary), 1813 (Primary HTS)]; type: functional
[2] = inhibitors of SNCA 5'UTR-driven reporter translation, confirmation, H4 neuroglioma cells, luminescence (AID 1988); type: functional, cell-based
[3] = target: T2, Heat shock factor protein 1 (Mus musculus, UniProt P38532); test: inhibition of MG132-induced HSE-luciferase signal, confirmation, cell-based, NIH3T3, luminescence, dose retest (AID 2382); type: functional;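 note: NIH3T3 fibroblasts with HSF1-driven luciferase reporter stressed by proteasome inhibitor MG132; luminescence from HSF1-driven luciferase expression after 8 hours of MG132 stress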
T2 sequence (P38532 whole entry): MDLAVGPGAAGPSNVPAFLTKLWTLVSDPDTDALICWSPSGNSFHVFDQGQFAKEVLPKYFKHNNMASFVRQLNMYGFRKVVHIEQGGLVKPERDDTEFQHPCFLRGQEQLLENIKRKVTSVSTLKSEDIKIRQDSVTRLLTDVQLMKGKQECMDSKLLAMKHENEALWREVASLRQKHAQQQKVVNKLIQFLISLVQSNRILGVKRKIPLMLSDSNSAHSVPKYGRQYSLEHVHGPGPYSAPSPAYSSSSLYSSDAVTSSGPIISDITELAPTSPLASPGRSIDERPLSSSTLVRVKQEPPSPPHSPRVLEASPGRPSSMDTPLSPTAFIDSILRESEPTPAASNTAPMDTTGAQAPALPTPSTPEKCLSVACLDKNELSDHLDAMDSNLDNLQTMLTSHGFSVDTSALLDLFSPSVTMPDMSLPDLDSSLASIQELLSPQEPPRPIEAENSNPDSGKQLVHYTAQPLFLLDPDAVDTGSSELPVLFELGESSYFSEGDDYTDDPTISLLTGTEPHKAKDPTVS

[4] = inhibitors of firefly luciferase expression or activity, dose response, H4 neuroglioma cells, luminescence (AID 1990); type: functional, cell-based
Cytochrome P450 2C9 = Cytochrome P450 2C9 (Homo sapiens, UniProt P11712)
Cytochrome P450 2C9, sequence (P11712 whole entry): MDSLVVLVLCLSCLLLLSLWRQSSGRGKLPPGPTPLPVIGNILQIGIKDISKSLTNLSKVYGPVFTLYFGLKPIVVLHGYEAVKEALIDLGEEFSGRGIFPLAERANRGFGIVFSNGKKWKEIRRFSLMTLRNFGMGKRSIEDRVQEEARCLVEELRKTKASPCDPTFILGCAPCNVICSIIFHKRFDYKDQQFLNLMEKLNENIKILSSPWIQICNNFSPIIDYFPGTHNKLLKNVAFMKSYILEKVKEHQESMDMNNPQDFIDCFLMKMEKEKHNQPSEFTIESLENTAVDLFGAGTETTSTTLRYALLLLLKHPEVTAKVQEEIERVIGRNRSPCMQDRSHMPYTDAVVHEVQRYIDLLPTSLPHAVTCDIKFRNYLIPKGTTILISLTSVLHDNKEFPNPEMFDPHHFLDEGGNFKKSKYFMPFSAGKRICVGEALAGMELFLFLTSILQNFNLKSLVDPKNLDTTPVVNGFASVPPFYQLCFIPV

Genome polyprotein = Genome polyprotein (dengue virus type 2, UniProt P29990); test: Dengue-2 NS5 methyltransferase inhibitors, primary screen, biochemical, confirmation dose response (AID 588689); type: functional
Genome polyprotein, sequence (P29990 2492-3391 limits assumed): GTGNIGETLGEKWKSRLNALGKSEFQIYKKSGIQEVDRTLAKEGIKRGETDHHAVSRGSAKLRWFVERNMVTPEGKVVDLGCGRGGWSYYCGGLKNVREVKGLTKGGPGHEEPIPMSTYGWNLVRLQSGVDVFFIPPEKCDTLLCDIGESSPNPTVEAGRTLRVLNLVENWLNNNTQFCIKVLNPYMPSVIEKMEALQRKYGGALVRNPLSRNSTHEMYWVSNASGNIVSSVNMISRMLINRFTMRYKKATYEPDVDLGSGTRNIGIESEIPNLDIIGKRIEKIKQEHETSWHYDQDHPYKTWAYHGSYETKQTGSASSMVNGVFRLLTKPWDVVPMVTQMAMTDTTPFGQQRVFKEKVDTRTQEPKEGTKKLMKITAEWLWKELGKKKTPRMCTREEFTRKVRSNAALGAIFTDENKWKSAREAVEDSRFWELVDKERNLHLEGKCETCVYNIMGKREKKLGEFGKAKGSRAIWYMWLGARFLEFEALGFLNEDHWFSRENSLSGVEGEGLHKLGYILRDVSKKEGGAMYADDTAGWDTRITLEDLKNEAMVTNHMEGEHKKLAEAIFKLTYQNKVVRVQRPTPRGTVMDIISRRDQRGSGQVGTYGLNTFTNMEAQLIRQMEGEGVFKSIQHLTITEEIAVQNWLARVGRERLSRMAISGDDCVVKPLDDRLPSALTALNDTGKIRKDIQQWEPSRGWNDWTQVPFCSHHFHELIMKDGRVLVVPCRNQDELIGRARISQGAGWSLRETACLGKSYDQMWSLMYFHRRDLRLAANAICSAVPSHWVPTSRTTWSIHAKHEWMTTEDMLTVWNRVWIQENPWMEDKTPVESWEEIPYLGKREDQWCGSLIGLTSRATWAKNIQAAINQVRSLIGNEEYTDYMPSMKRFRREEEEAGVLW

Cytochrome P450 3A4 = Cytochrome P450 3A4 (Homo sapiens, UniProt P08684);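 note: CYP3A4 tested as one member of a cytochrome P450 panel screen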
Cytochrome P450 3A4, sequence (P08684 whole entry, the tested form may be a part): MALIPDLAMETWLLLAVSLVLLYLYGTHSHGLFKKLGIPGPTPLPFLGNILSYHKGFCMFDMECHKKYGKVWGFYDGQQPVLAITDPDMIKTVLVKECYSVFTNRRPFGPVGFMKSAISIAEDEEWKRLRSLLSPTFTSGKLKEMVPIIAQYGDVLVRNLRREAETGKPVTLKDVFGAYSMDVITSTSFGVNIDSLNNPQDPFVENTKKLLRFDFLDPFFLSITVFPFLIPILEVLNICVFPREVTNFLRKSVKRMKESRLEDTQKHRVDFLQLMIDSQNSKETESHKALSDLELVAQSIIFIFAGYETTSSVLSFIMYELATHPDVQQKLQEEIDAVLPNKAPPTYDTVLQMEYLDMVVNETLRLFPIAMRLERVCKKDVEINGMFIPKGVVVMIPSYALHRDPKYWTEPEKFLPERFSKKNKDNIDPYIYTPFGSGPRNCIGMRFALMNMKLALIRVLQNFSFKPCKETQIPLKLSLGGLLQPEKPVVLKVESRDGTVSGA

[5] = target: T3, RNA-binding protein pos-1 (Caenorhabditis elegans, UniProt G5EF15); test: inhibitors of POS-1/mex-3 RNA binding, dose response, biochemical, fluorescence polarization (AID 1964);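 note: purified POS-1 fused to maltose binding protein made in E. coli; potency of compounds blocking POS-1 binding to fluorescent RNA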
T3 sequence (G5EF15 whole entry): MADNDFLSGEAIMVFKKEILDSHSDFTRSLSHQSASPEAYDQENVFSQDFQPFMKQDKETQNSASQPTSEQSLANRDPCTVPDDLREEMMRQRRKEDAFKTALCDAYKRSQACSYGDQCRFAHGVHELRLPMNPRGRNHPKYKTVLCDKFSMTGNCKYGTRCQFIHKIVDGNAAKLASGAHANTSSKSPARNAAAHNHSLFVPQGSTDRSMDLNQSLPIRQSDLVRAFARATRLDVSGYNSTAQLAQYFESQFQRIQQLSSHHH

[6] = target: T4, Zinc finger protein mex-5 (Caenorhabditis elegans, UniProt Q9XUB2); test: MEX-5/TCR-2 RNA interaction inhibitors, dose response, biochemical, C. elegans, fluorescence polarization (AID 1960)
T4 sequence (Q9XUB2 whole entry): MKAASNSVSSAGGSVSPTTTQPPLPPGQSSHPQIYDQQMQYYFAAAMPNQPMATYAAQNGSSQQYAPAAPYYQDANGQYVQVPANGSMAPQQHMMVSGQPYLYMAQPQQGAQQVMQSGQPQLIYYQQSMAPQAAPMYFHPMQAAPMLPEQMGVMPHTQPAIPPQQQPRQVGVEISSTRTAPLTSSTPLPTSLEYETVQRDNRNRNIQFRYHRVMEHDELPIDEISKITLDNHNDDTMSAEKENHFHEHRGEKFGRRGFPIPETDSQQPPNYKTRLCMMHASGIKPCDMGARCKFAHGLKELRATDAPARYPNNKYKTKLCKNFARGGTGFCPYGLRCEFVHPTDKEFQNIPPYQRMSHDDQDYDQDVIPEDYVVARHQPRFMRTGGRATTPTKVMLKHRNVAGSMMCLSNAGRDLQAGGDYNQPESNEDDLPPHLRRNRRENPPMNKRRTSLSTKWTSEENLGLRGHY

Cytochrome P450 2C19 = Cytochrome P450 2C19 (Homo sapiens, UniProt P33261); test: Cytochrome panel assay with activity outcomes. Panel member name: p450-cyp2c19 Compounds with AC50 equal or less than 10 uM are considered active; type: functional; conditions: read-out: AC50
Cytochrome P450 2C19, sequence (P33261 whole entry): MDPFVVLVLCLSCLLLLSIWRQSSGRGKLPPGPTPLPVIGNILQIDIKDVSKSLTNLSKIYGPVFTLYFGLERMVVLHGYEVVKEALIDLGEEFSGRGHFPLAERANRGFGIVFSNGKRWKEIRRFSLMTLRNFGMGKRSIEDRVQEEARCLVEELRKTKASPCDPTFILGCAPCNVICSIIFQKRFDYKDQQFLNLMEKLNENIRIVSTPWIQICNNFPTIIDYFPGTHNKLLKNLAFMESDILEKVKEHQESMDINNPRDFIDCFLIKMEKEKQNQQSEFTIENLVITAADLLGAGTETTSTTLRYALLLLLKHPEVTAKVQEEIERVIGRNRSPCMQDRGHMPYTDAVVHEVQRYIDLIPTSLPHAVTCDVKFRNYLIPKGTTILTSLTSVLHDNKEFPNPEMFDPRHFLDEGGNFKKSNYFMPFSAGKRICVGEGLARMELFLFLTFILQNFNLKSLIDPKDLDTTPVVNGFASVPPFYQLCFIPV

INS1 = test: beta cell apoptosis inhibitors, cytokine rescue, dose response, luminescence, retest (AID 449756); type: functional, cell-based; conditions: Rattus norvegicus;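 note: cell death triggered by IL-1 beta plus TNF-alpha plus IFN-gamma mixture; protective hits raise ATP signal compared with cytokine alone wells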
Streptococcus = test: Group A Streptococcus viability loss, dose response, counter-screen for streptokinase expression inhibitor project, luminescence, BacTiterGlo (AID 1915); type: functional, organism-based;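 note: potency for reduction of bacterial viability or growth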
[7] = system: Streptococcus sp. 'group A'; test: growth inhibition of control SK(-) GAS strain, dose response, counter-screen for streptokinase expression inhibitor project, luminescence, kanamycin, BacTiterGlo, confirmation (AID 1900); type: functional, organism-based
[8] = cytotoxicity toward NIH3T3 fibroblasts, dose response, counter-screen, cell-based, ATP luminescence, mouse fibroblasts (AID 2010); type: functional;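 note: cells exposed to compound for about 90 hours before reading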
[9] = inhibitors of intracellular T. cruzi replication, confirmation, NIH3T3 host cells, beta-gal luminescence (AID 2044); type: functional, cell-based;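 note: intracellular parasites grown in NIH/3T3 mouse fibroblasts as host cells; luminescent beta-galactosidase reporter signal from transgenic T. cruzi replicating inside host cells; inhibitors lower the luminescence signal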

Cytochrome P450 2D6, sequence (P10635 whole entry): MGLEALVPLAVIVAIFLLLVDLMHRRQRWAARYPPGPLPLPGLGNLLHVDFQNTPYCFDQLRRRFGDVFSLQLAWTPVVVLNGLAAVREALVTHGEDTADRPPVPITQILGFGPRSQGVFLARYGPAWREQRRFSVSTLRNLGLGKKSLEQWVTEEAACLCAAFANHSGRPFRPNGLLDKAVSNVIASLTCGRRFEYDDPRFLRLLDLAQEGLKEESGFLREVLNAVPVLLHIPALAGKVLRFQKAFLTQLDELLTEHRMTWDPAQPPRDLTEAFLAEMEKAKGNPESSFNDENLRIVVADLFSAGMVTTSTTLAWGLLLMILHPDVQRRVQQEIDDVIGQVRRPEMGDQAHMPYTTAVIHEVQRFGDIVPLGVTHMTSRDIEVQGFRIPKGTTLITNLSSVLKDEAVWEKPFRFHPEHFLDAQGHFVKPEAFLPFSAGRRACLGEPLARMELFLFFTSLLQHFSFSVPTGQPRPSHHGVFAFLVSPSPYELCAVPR

| SMILES | AC50 (Cytochrome P450 2D6) | AC50 (Cytochrome P450 1A2) | EC50 [1] | EC50 [2] | other results |
| --- | --- | --- | --- | --- | --- |
| COCCn1c(=O)c(-c2cccc(C#N)c2)nc2cnc(Nc3ccccc3)nc21 | 2.51 µM (inconclusive) | 2.51 µM (inconclusive) | – | – | – |
| c1ccc(Oc2cccc(OCCn3cncn3)c2)cc1 | – | – | > 120 µM (not active) | > 120 µM (not active) | EC50 [3]: > 195 µM (not active); EC50 [4]: > 120 µM (not active) |
| COc1cccc(Nc2ncc3nc(-c4ccc(F)cc4)c(=O)n(C)c3n2)c1 | – | 3.16 µM (inconclusive) | – | – | – |
| COc1ccc2nc(C)cc(SCC(=O)NNC(=O)COc3ccc(C)cc3)c2c1 | 2 µM (inconclusive) | – | – | – | AC50 (Cytochrome P450 2C9): 1.78 µM (inconclusive) |
| Cc1ccc(S(=O)(=O)NN2C(=O)/C(=C/c3ccc(C(=O)O)cc3)SC2=S)cc1 | – | – | – | – | IC50 (Genome polyprotein): 64.9 µM (active) |
| COC(=O)C/C=C\[C@@H](C)[C@@H](/C=N\O[C@@H](C)CN1CCCc2nc(C)c(C)cc21)OC | 2.51 µM (inconclusive) | – | – | – | AC50 (Cytochrome P450 3A4): 3.16 µM (inconclusive) |
| COc1cc(C2C(C#N)=C(N)OC3=C2C(=O)CC(C)(C)C3)c([N+](=O)[O-])cc1OC (stereo not given) | – | – | – | – | IC50 (Genome polyprotein): > 100 µM (active); EC50 [5]: 19.5 µM (active); EC50 [6]: 23 µM (inconclusive) |
| Cc1ccc(-n2nc3ccc(N)cc3n2)c(C)c1 | – | – | 20.3 µM (active) | 16.6 µM (active) | EC50 [4]: 15.2 µM (active) |
| O=[N+]([O-])c1ccc(Nc2nc3ccccc3s2)cc1 | 3.16 µM (inconclusive) | – | – | – | AC50 (Cytochrome P450 3A4): 5.01 µM (inconclusive) |
| CN(C)c1ncc2nc(CCc3ccccc3)c(=O)n(Cc3cccs3)c2n1 | 25.1 µM (inconclusive) | – | – | – | – |
| CNCCNS(=O)(=O)c1cccc2cnccc12 | 5.01 µM (inconclusive) | – | – | – | AC50 (Cytochrome P450 3A4): 20 µM (inconclusive) |
| CC(C)Oc1ccccc1C1Nc2ccccc2C(=O)N1c1ccc2c(c1)OCCO2 (stereo not given) | – | – | > 120 µM (not active) | 9.51 µM (active) | – |
| O=C(c1cc(C(F)(F)F)cc(C(F)(F)F)c1)N1CCC[C@@]2(CCN(Cc3nccs3)C2)C1 | – | 20 µM (inconclusive) | – | – | – |
| Cc1ccc2c(c1)[C@@H]1CN(C)CC[C@@H]1N2S(=O)(=O)c1ccc(F)cc1 | – | 17.8 µM (inconclusive) | – | – | AC50 (Cytochrome P450 2C9): 0.00562 µM (inconclusive); AC50 (Cytochrome P450 2C19): 28.2 µM (inconclusive) |
| NNC(=O)c1[nH]c2ccccc2c1-c1ccccc1 | – | – | > 120 µM (not active) | > 120 µM (not active) | EC50 [4]: > 120 µM (not active) |
| Nc1nc(O)c(/N=N\c2ccccc2)c(C(=O)O)n1 | – | 1.26 µM (inconclusive) | – | – | – |

| SMILES | AC50 (Cytochrome P450 2D6) | AC50 (Cytochrome P450 1A2) | EC50 [1] | EC50 [2] | other results |
| --- | --- | --- | --- | --- | --- |
| CCCCn1c(SCC(=O)Nc2nccs2)nc2ccccc2c1=O | – | 0.2 µM (inconclusive) | – | – | AC50 (Cytochrome P450 2C9): 0.398 µM (inconclusive); AC50 (Cytochrome P450 2C19): 0.0708 µM (inconclusive) |
| CO[C@H]1COC(=O)[C@H]2CCCN2C(=O)C/C=C\[C@@H](C)[C@H](OC)COC(=O)[C@@H](OCc2ccccc2)/C=C\[C@@H]1C | 3.16 µM (inconclusive) | – | – | – | AC50 (Cytochrome P450 3A4): 3.98 µM (inconclusive) |
| O[C@@H](COc1ccc(Cl)cc1Cl)CN1CCCC1 | – | 5.01 µM (inconclusive) | – | – | – |
| CC[C@H](Oc1ccc(Cl)cc1)C(=O)OC1C[C@H]2CC[C@@H](C1)N2C (stereo not given in full) | – | 31.6 µM (inconclusive) | – | – | – |
| CCOC(=O)N1CCN(C(=O)CN(c2ccc(OC)cc2)S(C)(=O)=O)CC1 | – | – | 83.4 µM (active) | > 120 µM (not active) | EC50 [4]: > 120 µM (not active) |
| Cn1c(SCc2nc(O)c3ccc(C(=O)O)cc3n2)nnc1C(F)(F)F | – | – | 38.9 µM (active) | > 120 µM (not active) | EC50 [4]: > 120 µM (not active) |
| CC(C)C[C@H](NC(=O)c1[nH]cnc1C(=O)N[C@@H](CC(C)C)C(=O)OC(C)(C)C)C(=O)OCc1ccccc1 | – | – | 15.7 µM (active) | 8.51 µM (active) | AC50 (INS1): 11.8 µM (active); EC50 [4]: 21.1 µM (active); EC50 (Streptococcus): 6.41 µM (active); EC50 [7]: 2.62 µM (active) |
| COc1cccc(-c2cc(NCc3cccnc3)ncn2)c1 | 25.1 µM (inconclusive) | – | – | – | – |
| Cc1ccc2sc(N(CCCN(C)C)C(=O)CCS(=O)(=O)c3ccccc3)nc2c1C | – | – | 13.7 µM (active) | 11.1 µM (active) | EC50 [8]: 4.17 µM (active); EC50 [9]: 0.226 µM (active); EC50 [4]: 14.3 µM (active) |
| O=C(NCCN1CCN(C(=O)c2cccc(Br)c2)CC1)C(=O)Nc1ccc(Br)cc1 | – | – | 18.7 µM (active) | 65.2 µM (active) | EC50 [4]: 13.8 µM (active) |
| COc1ccc(Nc2nc(N)nc(CSc3nc(C)cc(C)n3)n2)cc1 | – | – | > 120 µM (not active) | 91.3 µM (active) | EC50 [3]: > 195 µM (not active); EC50 [4]: 19.8 µM (active) |
| CS(=O)(=O)Nc1cccc(-c2ccc3ncnc(NCc4cccnc4)c3c2)c1 | 20 µM (inconclusive) | – | – | – | – |
| CC(C)(C)NC(=O)CN(Cc1cccs1)C(=O)CCC(=O)Nc1nccs1 | 28.2 µM (inconclusive) | – | – | – | – |
| COc1ccc(C(=O)N/N=C2/SCC(=O)N2Cc2ccc3c(c2)OCO3)cc1OC | – | 25.1 µM (inconclusive) | – | – | – |
| CN(C)C(=O)c1ccc(-c2ccc3ncnc(NCc4ccccc4)c3c2)cc1 | 31.6 µM (inconclusive) | – | – | – | – |
| Clc1ccc2c(NCCNc3ccnc4cc(Cl)ccc34)ccnc2c1 | – | 5.01 µM (inconclusive) | – | – | – |
